From ChEMBL document CHEMBL4507273 (2021)

What was measured:
[1] = biological target: Muscle, skeletal receptor tyrosine-protein kinase (Homo sapiens) (UniProt O15146); settings: Compound concentration 1000.0 nM
[2] = biological target: Macrophage-stimulating protein receptor (Homo sapiens) (UniProt Q04912); settings: Compound concentration 1000.0 nM
[3] = biological target: T1, Alpha-1B adrenergic receptor (Homo sapiens, UniProt P35368); test: GPCRScan assay: inhibition of Alpha1B; design: radioligand conc. used [nm] 0.3 – 1.0, parental cells stable HEK
T1 sequence (P35368 whole entry): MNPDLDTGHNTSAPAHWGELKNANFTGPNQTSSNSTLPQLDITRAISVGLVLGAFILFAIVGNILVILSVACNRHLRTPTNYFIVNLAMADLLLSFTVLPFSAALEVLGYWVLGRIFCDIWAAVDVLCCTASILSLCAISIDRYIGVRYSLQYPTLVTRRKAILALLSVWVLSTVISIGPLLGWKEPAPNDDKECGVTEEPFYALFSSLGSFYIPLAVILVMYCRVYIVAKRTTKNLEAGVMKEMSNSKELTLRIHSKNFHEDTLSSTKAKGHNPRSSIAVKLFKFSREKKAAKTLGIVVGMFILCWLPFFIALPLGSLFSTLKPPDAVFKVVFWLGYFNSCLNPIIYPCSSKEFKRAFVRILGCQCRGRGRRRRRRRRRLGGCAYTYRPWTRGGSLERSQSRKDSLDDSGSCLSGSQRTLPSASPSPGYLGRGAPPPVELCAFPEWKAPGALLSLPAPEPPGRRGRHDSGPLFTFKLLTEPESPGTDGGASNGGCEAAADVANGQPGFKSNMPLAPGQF

[4] = biological target: Serine/threonine-protein kinase 33 (Homo sapiens) (UniProt Q9BYT3); settings: Compound concentration 1000.0 nM
[5] = system: Mast/stem cell growth factor receptor Kit (Homo sapiens), P10721 [V559D]; settings: Compound concentration 1000.0 nM
[6] = biological target: Proto-oncogene tyrosine-protein kinase Src (Homo sapiens) (UniProt P12931); settings: Compound concentration 1000.0 nM
[7] = biological target: Myosin-IIIb (Homo sapiens) (UniProt Q8WXR4); settings: Compound concentration 1000.0 nM
[8] = system: Tyrosine-protein kinase ABL1 (Homo sapiens), P00519 [F317L]; settings: Compound concentration 1000.0 nM
[9] = biological target: BDNF/NT-3 growth factors receptor (Homo sapiens) (UniProt Q16620); settings: Compound concentration 1000.0 nM
D(1A) dopamine receptor [10] = biological target: T2, D(1A) dopamine receptor (Homo sapiens, UniProt P21728); test: GPCRScan assay: inhibition of D1; design: radioligand conc. used [nm] 0.6 – 1.3, parental cells HEKT
[11] = biological target: Tyrosine-protein kinase ITK/TSK (Homo sapiens) (UniProt Q08881); settings: Compound concentration 1000.0 nM
[12] = biological target: Ephrin type-B receptor 3 (Homo sapiens) (UniProt P54753); settings: Compound concentration 1000.0 nM
[13] = biological target: Sodium-dependent dopamine transporter (Homo sapiens, UniProt Q01959); settings: Compound concentration 10.0 uM
[14] = biological target: T3, Alpha-2C adrenergic receptor (Homo sapiens) (UniProt P18825); settings: Compound concentration 10.0 uM
T3 sequence (whole entry): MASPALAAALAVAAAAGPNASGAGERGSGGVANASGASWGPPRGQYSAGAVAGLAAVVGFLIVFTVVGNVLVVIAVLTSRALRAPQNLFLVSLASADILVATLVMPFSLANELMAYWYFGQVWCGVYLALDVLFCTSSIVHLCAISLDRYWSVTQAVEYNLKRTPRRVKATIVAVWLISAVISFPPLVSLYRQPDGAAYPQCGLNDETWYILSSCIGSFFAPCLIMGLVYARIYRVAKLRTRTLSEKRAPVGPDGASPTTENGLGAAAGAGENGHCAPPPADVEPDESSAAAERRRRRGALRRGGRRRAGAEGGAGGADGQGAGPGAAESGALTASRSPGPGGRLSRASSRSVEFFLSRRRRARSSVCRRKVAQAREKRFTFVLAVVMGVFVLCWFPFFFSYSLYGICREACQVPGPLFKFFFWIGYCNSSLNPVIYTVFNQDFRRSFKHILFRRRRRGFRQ

[15] = biological target: Bone morphogenetic protein receptor type-1B (Homo sapiens) (UniProt O00238); settings: Compound concentration 1000.0 nM
[16] = biological target: Cyclin-dependent kinase 18 (Homo sapiens) (UniProt Q07002); settings: Compound concentration 1000.0 nM
[17] = biological target: Calcium/calmodulin-dependent protein kinase type II subunit beta (Homo sapiens) (UniProt Q13554); settings: Compound concentration 1000.0 nM
[18] = biological target: Epithelial discoidin domain-containing receptor 1 (Homo sapiens) (UniProt Q08345); settings: Compound concentration 1000.0 nM
[19] = system: Fibroblast growth factor receptor 3 (Homo sapiens), P22607 [G697C]; settings: Compound concentration 1000.0 nM
[20] = biological target: Tyrosine-protein kinase Fer (Homo sapiens) (UniProt P16591); settings: Compound concentration 1000.0 nM
[21] = biological target: MAP kinase-activated protein kinase 5 (Homo sapiens) (UniProt Q8IW41); settings: Compound concentration 1000.0 nM
[22] = biological target: Serine/threonine-protein kinase PAK 6 (Homo sapiens) (UniProt Q9NQU5); settings: Compound concentration 1000.0 nM
[23] = biological target: cAMP-dependent protein kinase catalytic subunit alpha (Homo sapiens) (UniProt P17612); settings: Compound concentration 1000.0 nM
[24] = biological target: T4, 5-hydroxytryptamine receptor 2C (Homo sapiens, UniProt P28335); test: GPCRScan assay: inhibition of 5-HT2C; design: radioligand conc. used [nm] 1.0 – 2.5, parental cells HEK T
T4 sequence (P28335 whole entry): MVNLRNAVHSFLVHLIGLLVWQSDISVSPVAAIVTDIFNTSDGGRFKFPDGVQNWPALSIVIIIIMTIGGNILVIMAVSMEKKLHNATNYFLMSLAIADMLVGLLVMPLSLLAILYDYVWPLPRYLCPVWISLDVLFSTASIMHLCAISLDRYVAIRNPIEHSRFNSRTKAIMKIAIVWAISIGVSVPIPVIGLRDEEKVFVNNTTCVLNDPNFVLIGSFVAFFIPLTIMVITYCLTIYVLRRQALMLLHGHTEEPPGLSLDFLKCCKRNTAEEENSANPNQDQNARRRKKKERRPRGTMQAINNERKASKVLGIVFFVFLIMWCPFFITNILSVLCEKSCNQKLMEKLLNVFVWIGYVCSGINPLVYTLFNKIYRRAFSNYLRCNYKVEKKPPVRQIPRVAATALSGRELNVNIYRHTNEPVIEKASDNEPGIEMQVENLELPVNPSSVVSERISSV

D(1A) dopamine receptor [25] = biological target: T2, D(1A) dopamine receptor; settings: Compound concentration 10.0 uM

T2 sequence (P21728 whole entry): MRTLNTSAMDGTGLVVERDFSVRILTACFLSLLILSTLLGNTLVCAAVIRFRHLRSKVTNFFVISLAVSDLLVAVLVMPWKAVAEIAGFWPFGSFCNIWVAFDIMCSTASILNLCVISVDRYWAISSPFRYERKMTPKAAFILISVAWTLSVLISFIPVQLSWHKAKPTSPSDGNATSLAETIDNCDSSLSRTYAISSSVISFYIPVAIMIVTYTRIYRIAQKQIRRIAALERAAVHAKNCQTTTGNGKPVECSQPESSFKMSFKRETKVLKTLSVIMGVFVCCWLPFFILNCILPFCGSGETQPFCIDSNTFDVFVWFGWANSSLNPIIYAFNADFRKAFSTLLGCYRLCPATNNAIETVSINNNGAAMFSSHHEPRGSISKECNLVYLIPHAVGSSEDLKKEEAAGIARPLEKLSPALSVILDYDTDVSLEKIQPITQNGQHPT
Cyclin-dependent kinase 18 (Homo sapiens), sequence (Q07002 whole entry): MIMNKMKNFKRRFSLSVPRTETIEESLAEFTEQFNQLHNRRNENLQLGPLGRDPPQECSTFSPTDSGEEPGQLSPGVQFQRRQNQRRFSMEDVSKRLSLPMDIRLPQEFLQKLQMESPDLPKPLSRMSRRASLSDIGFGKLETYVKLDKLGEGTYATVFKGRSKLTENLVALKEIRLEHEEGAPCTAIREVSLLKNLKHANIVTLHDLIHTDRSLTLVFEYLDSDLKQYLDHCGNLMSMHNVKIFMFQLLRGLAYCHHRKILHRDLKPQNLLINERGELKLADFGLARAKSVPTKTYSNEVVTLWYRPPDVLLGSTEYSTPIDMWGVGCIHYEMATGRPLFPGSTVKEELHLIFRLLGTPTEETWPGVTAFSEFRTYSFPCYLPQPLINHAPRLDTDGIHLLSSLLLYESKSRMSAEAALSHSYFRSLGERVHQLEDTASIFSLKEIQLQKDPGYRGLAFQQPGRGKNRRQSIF
Proto-oncogene tyrosine-protein kinase Src (Homo sapiens), sequence (P12931 2-536 limits assumed): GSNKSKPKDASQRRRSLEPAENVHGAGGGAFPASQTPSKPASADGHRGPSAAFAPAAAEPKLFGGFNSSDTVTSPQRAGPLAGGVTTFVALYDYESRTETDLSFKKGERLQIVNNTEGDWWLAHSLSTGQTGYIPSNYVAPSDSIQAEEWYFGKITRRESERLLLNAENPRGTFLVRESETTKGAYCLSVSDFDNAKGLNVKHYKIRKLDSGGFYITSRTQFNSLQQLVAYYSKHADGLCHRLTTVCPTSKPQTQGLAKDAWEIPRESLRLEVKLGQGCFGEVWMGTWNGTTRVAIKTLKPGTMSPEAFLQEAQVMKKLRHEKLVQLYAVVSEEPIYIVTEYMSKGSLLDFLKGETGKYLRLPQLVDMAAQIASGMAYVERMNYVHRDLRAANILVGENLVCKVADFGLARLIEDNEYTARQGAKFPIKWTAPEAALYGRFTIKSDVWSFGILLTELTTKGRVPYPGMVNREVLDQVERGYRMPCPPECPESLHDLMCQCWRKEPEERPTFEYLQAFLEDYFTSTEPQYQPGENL
Tyrosine-protein kinase Fer (Homo sapiens), sequence (P16591 whole entry, looked up): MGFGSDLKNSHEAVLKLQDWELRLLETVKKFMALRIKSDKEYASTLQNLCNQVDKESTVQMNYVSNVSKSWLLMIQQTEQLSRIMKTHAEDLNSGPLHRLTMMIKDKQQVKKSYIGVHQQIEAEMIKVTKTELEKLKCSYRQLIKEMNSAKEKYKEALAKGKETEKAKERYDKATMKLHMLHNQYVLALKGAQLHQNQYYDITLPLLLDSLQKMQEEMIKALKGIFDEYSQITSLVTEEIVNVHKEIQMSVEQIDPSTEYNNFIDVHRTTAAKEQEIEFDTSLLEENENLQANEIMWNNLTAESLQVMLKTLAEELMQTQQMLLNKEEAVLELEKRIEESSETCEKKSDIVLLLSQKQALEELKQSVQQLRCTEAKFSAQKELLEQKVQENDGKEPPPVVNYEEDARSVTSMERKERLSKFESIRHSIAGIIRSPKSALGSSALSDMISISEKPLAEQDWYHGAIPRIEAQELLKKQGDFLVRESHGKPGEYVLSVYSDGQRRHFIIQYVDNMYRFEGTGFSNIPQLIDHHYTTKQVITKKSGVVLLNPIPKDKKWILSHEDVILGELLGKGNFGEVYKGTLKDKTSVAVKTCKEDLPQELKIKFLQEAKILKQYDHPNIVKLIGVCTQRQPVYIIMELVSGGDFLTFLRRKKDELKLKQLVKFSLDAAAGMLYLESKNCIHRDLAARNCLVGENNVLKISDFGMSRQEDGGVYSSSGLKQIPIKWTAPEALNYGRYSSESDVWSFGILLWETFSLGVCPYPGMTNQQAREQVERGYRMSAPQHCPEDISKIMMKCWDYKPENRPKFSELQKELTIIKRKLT
Serine/threonine-protein kinase 33 (Homo sapiens), sequence (Q9BYT3 whole entry, looked up): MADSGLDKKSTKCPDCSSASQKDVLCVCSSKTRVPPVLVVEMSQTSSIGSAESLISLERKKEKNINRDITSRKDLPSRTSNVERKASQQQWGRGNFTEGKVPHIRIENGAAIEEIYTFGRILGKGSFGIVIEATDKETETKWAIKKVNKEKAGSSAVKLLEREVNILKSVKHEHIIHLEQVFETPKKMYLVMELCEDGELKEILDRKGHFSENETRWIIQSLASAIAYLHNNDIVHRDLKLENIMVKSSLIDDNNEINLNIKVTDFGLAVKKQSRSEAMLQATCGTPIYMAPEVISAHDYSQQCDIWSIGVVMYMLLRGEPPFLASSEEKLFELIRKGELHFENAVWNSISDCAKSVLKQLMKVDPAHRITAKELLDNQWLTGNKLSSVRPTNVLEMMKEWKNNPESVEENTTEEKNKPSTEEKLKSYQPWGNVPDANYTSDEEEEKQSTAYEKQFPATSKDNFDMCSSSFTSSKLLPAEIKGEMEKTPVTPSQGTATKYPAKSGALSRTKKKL
Mast/stem cell growth factor receptor Kit (Homo sapiens), P10721 [V559D], sequence (P10721 whole entry V559D): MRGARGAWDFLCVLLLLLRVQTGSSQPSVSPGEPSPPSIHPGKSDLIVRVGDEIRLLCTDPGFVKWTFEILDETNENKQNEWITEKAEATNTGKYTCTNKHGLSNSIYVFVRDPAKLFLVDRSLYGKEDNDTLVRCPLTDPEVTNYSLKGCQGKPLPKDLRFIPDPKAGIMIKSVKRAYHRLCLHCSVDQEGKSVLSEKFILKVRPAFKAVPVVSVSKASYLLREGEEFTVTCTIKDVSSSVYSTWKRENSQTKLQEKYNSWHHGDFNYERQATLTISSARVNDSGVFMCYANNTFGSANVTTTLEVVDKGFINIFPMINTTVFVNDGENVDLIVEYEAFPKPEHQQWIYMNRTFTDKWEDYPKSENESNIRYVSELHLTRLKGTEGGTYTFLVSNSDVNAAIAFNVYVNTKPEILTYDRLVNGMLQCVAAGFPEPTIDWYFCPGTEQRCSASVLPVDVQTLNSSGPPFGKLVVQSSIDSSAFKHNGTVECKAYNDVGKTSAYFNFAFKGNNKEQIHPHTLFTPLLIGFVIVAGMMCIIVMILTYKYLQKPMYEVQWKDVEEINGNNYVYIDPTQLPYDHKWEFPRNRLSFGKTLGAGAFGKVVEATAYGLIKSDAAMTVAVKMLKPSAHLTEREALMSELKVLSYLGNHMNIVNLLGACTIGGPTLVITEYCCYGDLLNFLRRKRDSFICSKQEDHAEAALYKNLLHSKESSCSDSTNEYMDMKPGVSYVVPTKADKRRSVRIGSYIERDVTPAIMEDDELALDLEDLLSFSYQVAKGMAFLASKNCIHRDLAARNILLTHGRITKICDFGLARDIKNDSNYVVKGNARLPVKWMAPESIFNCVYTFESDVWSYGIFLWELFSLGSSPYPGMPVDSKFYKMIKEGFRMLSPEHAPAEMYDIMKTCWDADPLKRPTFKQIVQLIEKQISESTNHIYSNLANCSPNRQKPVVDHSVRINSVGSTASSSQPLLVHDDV
Serine/threonine-protein kinase PAK 6 (Homo sapiens), sequence (Q9NQU5 whole entry, looked up): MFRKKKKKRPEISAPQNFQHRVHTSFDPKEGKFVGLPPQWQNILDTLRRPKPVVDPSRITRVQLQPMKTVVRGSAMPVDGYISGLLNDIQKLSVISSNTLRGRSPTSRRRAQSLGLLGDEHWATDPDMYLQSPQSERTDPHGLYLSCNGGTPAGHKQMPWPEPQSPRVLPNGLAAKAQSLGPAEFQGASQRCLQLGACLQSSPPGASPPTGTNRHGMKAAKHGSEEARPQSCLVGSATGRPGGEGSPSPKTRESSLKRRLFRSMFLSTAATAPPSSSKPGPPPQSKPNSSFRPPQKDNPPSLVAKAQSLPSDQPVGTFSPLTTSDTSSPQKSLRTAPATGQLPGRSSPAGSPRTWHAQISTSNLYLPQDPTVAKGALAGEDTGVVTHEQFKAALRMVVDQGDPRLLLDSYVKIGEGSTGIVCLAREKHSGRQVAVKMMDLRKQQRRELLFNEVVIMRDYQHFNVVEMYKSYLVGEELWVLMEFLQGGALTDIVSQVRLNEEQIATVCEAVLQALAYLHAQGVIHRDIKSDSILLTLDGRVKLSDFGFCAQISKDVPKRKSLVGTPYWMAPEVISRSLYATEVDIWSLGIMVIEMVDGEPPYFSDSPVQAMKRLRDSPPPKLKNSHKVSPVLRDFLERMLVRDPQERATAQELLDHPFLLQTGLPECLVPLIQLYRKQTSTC
MAP kinase-activated protein kinase 5 (Homo sapiens), sequence (Q8IW41 whole entry): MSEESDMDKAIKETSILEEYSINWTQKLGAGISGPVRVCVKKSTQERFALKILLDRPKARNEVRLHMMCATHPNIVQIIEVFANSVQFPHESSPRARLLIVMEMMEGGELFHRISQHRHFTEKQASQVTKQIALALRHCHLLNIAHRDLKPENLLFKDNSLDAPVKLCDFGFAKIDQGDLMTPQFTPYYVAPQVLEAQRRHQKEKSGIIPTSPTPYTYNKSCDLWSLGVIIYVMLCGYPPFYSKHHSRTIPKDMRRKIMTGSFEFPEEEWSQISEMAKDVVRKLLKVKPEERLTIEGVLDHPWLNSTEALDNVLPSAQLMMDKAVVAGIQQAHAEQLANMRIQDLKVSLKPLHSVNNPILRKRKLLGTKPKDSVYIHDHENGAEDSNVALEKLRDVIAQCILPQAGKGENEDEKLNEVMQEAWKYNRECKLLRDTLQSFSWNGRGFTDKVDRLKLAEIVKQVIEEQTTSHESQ

Row | Structure (SMILES) | residual activity [1] [%] | residual activity [2] [%] | Ki ([3]; read-out: Ki) [nM] | residual activity [4] [%] | residual activity [5] [%] | residual activity [6] [%] | residual activity [7] [%] | residual activity [8] [%] | residual activity [9] [%] | Ki (D(1A) dopamine receptor [10]; read-out: Ki) [nM] | residual activity [11] [%] | residual activity [12] [%] | inhibition [13] [%] | inhibition [14] [%] | residual activity [15] [%] | residual activity [16] [%] | residual activity [17] [%] | residual activity [18] [%] | residual activity [19] [%] | residual activity [20] [%] | also measured
1 | CNCc1ccccc1-c1csc([C@H](C)Nc2nc(C)nc3cc(OC)c(OC)cc23)c1 [BAY-294] | 90 | 100 | 95.3 | 73 | 100 | 100 | 87 | 97 | 98 | 718 | 100 | 100 | 70.3 | 94.2 | 100 | 100 | 100 | 100 | 100 | 100 | Ki ([3]; read-out: pKi (converted)): 86.1 nM; Ki (D(1A) dopamine receptor [10]; read-out: pKi (converted)): 562 nM; residual activity [21]: 100%; residual activity [22]: 100%; residual activity [23]: 100%; Ki ([24]; read-out: Ki): 706 nM; Ki ([24]; read-out: pKi (converted)): 692 nM; inhibition (D(1A) dopamine receptor [25]): 89.2%
2 | CNCc1ccccc1-c1csc([C@@H](C)Nc2nc(C)nc3cc(OC)c(OC)cc23)c1 [BAY-293] | 93 | 100 | 265 | 45 | 100 | 100 | 47 | 86 | 88 | 1270 | 100 | 100 | 77.2 | 94.2 | 83 | 100 | 92 | 100 | 85 | 100 | residual activity [21]: 88%; residual activity [22]: 100%; residual activity [23]: 100%; Ki ([24]; read-out: Ki): 3400 nM; Ki ([24]; read-out: pKi (converted)): 2880 nM; inhibition (D(1A) dopamine receptor [25]): 82.7%
